{"source": "ChEMBL document CHEMBL5316263", "about": "“Structure-Based Discovery of Selective Histone Deacetylase 8 Degraders with Potent Anticancer Activity” (J Med Chem, 2023)", "key": {"A549 [1]": {"test_system": "A549", "test": "Induction of cell cycle arrest in human A549 cells assessed as accumulation of cells at G2/M phase at 5 uM measured after 48 hrs by propidium iodide staining based flow cytometry analysis", "type": "functional"}, "A549 [2]": {"test_system": "A549", "test": "Induction of apoptosis in human A549 cells assessed as late apoptotic cells at 1.25 uM incubated for 72 hrs by annexin V-FITC staining based flow cytometry (reference value: 0.048%)", "type": "functional"}, "[3]": {"target": "T1, Protein cereblon/Histone deacetylase 8 (Homo sapiens) (UniProt Q9BY41+Q96SW2)", "T1 sequence (Q96SW2 whole entry, looked up)": "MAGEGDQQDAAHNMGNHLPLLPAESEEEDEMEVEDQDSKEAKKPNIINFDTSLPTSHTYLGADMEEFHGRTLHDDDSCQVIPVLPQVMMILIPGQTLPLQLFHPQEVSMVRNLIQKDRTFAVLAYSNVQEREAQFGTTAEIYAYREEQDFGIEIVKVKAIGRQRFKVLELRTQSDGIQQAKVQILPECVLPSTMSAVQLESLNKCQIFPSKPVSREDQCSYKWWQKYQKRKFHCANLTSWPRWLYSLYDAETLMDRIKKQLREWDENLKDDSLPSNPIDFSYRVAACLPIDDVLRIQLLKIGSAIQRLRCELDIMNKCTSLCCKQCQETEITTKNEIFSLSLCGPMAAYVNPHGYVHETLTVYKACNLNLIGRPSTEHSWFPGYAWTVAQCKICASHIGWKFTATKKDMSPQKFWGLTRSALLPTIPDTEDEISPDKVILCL", "T1 sequence (Q9BY41 whole entry, looked up)": "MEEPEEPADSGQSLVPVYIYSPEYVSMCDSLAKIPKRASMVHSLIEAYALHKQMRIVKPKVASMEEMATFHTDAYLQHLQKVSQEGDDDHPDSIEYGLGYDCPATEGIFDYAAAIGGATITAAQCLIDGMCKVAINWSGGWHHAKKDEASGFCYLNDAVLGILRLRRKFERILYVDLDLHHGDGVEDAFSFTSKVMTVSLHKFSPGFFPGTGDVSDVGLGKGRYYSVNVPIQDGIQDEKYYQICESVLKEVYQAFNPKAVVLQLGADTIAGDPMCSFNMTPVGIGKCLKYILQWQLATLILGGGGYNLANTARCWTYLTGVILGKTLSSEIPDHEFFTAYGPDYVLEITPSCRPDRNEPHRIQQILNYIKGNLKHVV", "test": "Protac activity at CRBN/HDAC8 in human A549 cells assessed as degradation of HDAC8 at 200 nM measured after 20 hrs by Western blot analysis relative to control", "type": "cell-based"}, "A549 [4]": {"test_system": "A549", "test": "Inhibition of colony formation in human A549 cells assessed as reduction in cell proliferation at 2.5 to 10 uM measured after 7 to 10 days with media replenishment along with compound for every 3 days by crystal violet staining based analysis", "type": "functional", "details": "dose 2.5-10 µM, time 7-10 day"}, "HCT-116 [5]": {"test_system": "HCT-116", "test": "Inhibition of colony formation in human HCT-116 cells assessed as reduction in cell proliferation at 2.5 to 10 uM measured after 7 to 10 days with media replenishment along with compound for every 3 days by crystal violet staining based analysis", "type": "functional", "details": "dose 2.5-10 µM, time 7-10 day"}, "HCT-116 [6]": {"test_system": "HCT-116", "test": "Inhibition of colony formation in SiRNA mediated HDAC8 knockdown human HCT-116 cells assessed as decrease in cell proliferation at 2.5 to 10 uM measured after 7 to 10 days with media replenishment along with compound for every 3 days by crystal violet staining based analysis", "type": "functional", "details": "dose 2.5-10 µM, time 7-10 day"}, "A549 [7]": {"test_system": "A549", "test": "Effect on MAFK gene in human A549 cells at 10 uM measured after 20 hrs by RNA sequencing analysis", "type": "functional, cell-based"}, "A549 [8]": {"test_system": "A549", "test": "Effect on ARPIN gene in human A549 cells at 10 uM measured after 20 hrs by RNA sequencing analysis", "type": "functional, cell-based"}, "A549 [9]": {"test_system": "A549", "test": "Effect on HDAC8 mRNA level in human A549 cells at 10 uM measured after 20 hrs by RNA sequencing analysis", "type": "functional, cell-based"}, "A549 [10]": {"test_system": "A549", "test": "Downregulation of COMMD1 in human A549 cells measured after 20 hrs by proteomic analysis", "type": "functional, cell-based"}, "A549 [11]": {"test_system": "A549", "test": "Induction of apoptosis in human A549 cells assessed as viable cells at 5 uM incubated for 72 hrs by annexin V-FITC staining based flow cytometry (reference value: 99.9%)", "type": "functional", "details": "read-out: Activity"}, "A549 [12]": {"test_system": "A549", "test": "Induction of apoptosis in human A549 cells assessed as early apoptotic cells at 5 uM incubated for 72 hrs by annexin V-FITC staining based flow cytometry (reference value: 0.099%)", "type": "functional"}, "A549 [13]": {"test_system": "A549", "test": "Induction of apoptosis in human A549 cells assessed as early apoptotic cells at 20 uM incubated for 72 hrs by annexin V-FITC staining based flow cytometry (reference value: 0.099%)", "type": "functional"}, "A549 [14]": {"test_system": "A549", "test": "Induction of apoptosis in human A549 cells assessed as necrotic cells at 5 uM incubated for 72 hrs by annexin V-FITC staining based flow cytometry relative to control", "type": "functional"}, "A549 [15]": {"test_system": "A549", "test": "Induction of apoptosis in human A549 cells assessed as necrotic cells at 20 uM incubated for 72 hrs by annexin V-FITC staining based flow cytometry relative to control", "type": "functional"}, "A549 [16]": {"test_system": "A549", "test": "Induction of apoptosis in human A549 cells assessed as upregulation of cleaved caspase-3 level measured after 48 hrs by Western blot analysis", "type": "functional, cell-based", "details": "dose 1.25-20 µM"}, "A549 [17]": {"test_system": "A549", "test": "Induction of apoptosis in human A549 cells assessed as necrotic cells at 5 uM by annexin V-FITC staining based flow cytometry (reference value: 0%)", "type": "functional"}, "A549 [18]": {"test_system": "A549", "test": "Induction of apoptosis in human A549 cells assessed as necrotic cells at 5 uM incubated with compound followed by irradiation by annexin V-FITC staining based flow cytometry (reference value: 2.02%)", "type": "functional"}, "A549 [19]": {"test_system": "A549", "test": "Induction of apoptosis in human A549 cells assessed as necrotic cells at 5 uM incubated for 48 hrs by annexin V FITC and propidium iodide based flow cytometry relative to control", "type": "functional"}, "[20]": {"target": "T1, Protein cereblon/Histone deacetylase 8 (Homo sapiens)", "test": "Protac activity at CRBN/HDAC8 in human A549 cells assessed as reduction in HDAC8 protein level at 10 uM by Western blot analysis relative to control", "type": "cell-based", "set-up": "scale not given: the % may be the effect or the level left"}, "[21]": {"target": "Protein cereblon/Histone deacetylase 1 (Homo sapiens) (UniProt Q13547+Q96SW2)", "sequence (Q13547 whole entry, looked up)": "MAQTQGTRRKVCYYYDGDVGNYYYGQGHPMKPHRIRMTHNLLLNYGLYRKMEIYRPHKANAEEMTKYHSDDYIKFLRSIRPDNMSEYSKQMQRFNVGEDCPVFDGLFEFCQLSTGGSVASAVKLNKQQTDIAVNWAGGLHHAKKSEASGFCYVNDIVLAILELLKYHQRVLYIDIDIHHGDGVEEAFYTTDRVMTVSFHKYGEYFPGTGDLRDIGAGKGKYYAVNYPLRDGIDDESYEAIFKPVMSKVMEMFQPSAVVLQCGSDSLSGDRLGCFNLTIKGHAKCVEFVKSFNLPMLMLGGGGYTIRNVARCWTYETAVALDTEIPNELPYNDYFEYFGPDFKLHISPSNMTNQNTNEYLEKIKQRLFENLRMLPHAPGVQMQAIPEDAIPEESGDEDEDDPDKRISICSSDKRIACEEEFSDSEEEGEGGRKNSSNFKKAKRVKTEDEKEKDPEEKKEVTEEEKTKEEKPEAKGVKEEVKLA", "sequence (Q96SW2 whole entry, looked up)": "as the sequence (Q96SW2 whole entry, looked up) above", "test": "Protac activity at CRBN/HDAC1 in human A549 cells assessed as reduction in HDAC1 protein level at 0.1 to 10 uM by Western blot analysis", "type": "cell-based", "details": "dose 0.1-10 µM"}, "[22]": {"target": "Protein cereblon/Histone deacetylase 9 (Homo sapiens) (UniProt Q9UKV0+Q96SW2)", "sequence (Q96SW2 whole entry, looked up)": "as above", "sequence (Q9UKV0 whole entry, looked up)": "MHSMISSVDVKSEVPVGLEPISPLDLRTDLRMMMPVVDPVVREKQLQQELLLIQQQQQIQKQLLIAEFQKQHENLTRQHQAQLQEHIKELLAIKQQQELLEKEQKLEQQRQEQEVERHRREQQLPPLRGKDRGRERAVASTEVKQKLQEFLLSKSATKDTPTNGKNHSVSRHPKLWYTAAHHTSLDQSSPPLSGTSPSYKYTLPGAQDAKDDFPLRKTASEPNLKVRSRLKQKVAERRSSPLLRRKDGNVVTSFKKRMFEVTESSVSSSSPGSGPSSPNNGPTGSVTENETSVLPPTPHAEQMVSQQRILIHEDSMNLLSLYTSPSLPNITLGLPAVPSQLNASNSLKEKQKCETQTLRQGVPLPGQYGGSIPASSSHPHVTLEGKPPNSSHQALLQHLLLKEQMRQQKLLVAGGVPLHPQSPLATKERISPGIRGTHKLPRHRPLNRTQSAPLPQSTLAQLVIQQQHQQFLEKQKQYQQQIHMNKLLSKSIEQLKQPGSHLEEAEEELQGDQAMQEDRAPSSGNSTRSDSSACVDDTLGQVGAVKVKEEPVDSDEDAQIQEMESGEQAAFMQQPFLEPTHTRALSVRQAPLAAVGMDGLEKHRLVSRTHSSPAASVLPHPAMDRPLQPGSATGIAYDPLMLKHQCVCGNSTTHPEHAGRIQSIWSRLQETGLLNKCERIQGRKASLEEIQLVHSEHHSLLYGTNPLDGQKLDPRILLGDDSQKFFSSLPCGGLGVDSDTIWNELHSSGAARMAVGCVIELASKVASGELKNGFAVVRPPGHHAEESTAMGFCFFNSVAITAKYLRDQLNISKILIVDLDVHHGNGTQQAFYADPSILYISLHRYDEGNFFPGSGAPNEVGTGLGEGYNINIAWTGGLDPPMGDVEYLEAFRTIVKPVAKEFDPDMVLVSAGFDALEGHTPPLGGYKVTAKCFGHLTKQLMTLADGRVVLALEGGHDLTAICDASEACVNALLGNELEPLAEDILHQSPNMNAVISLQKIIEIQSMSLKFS", "test": "Protac activity at CRBN/HDAC9 in human A549 cells assessed as reduction in HDAC9 protein level at 0.1 to 10 uM by Western blot analysis", "type": "cell-based", "details": "dose 0.1-10 µM"}, "[23]": {"target": "T1, Protein cereblon/Histone deacetylase 8 (Homo sapiens)", "test": "Protac activity at CRBN/HDAC8 in human A549 cells assessed as maximum degradation at 10 uM incubated for 20 hrs by ELISA method relative to control", "type": "cell-based"}, "[24]": {"target": "T1, Protein cereblon/Histone deacetylase 8 (Homo sapiens)", "test": "Protac activity at CRBN/HDAC8 in human A549 cells at 10 uM measured preincubated for 20 hrs followed by drug washout and measured after 48 hrs by Western blot analysis", "type": "cell-based"}, "[25]": {"target": "T1, Protein cereblon/Histone deacetylase 8 (Homo sapiens)", "test": "Protac activity at CRBN/HDAC8 in human Jurkat cells at 0.1 to 10 uM measured after 20 hrs by Western blot analysis", "type": "cell-based", "details": "dose 0.1-10 µM"}, "[26]": {"target": "T1, Protein cereblon/Histone deacetylase 8 (Homo sapiens)", "test": "Protac activity at CRBN/HDAC8 in human HBEC3-KT cells at 0.1 to 10 uM measured after 20 hrs by Western blot analysis", "type": "cell-based", "details": "dose 0.1-10 µM"}, "[27]": {"target": "T1, Protein cereblon/Histone deacetylase 8 (Homo sapiens)", "test": "Protac activity at CRBN/HDAC8 in human A549 cells assessed as decrease in PGM1 expression at 0.1 to 10 uM under glucose deprivation condition by Western blot analysis", "type": "cell-based", "details": "dose 0.1-10 µM"}, "A549 [28]": {"test_system": "A549", "test": "Inhibition of DNA damage repair in human A549 cells assessed as reduction in number of gamma-H2AX foci at 5 uM incubated for 24 hrs followed by irradiation for 4 hrs by immunofluorescence staining based analysis", "type": "functional, cell-based"}, "A549 [29]": {"test_system": "A549", "test": "Antitumor activity against human A549 cells xenografted in NOD/SCID mouse at 5 mg/kg, ip administered every 5 days measured at day 30 followed by irradiation", "type": "functional, organism-based", "details": "time 30.0 day"}, "[30]": {"target": "T1, Protein cereblon/Histone deacetylase 8 (Homo sapiens)", "test": "In vivo protac activity at CRBN/HDAC8 in human A549 cells xenografted in NOD/SCID mouse assessed as degradation of HDAC8 at 5 mg/kg, ip administered every 5 days measured at day 30 under irradiation condition by Western blot analysis", "type": "functional, organism-based", "details": "time 30.0 day"}, "A549 [31]": {"test_system": "A549", "test": "Antitumor activity against human A549 cells xenografted in NOD/SCID mouse assessed as decrease in HDAC8 expression at 5 mg/kg, ip administered every 5 days measured at day 30 under irradiation condition by […] analysis", "type": "functional, organism-based", "details": "time 30.0 day"}, "A549 [32]": {"test_system": "A549", "test": "Antitumor activity against human A549 cells xenografted in NOD/SCID mouse assessed as decrease in HDAC8 expression at 5 mg/kg, ip administered every 5 days measured at day 30 by […] analysis", "type": "functional, organism-based", "details": "time 30.0 day"}}, "note": "Activity calls are given as the source filed them. The rule behind the calls is not given here.", "data": [{"compound": "O=C1CCC(N2C(=O)c3cccc(NCc4cn(CCOCCOc5ccc(Cn6ccc7ccc(C(=O)NO)cc76)cc5)nn4)c3C2=O)C(=O)N1", "note": "(configuration not stated)", "values": [{"measurement": "Activity", "setting": "A549 [1]", "result": "Active"}, {"measurement": "Activity", "setting": "A549 [2]", "result": 7.4, "unit": "%"}, {"measurement": "Activity", "setting": "[3]", "result": 39.7, "unit": "%"}, {"measurement": "inhibition", "setting": "A549 [4]", "result": "Active"}, {"measurement": "inhibition", "setting": "HCT-116 [5]", "result": "Active"}, {"measurement": "inhibition", "setting": "HCT-116 [6]", "result": "Active"}, {"measurement": "Activity", "setting": "A549 [7]", "result": "Active"}, {"measurement": "Activity", "setting": "A549 [8]", "result": "Active"}, {"measurement": "Activity", "setting": "A549 [9]", "result": "inactive"}, {"measurement": "Activity", "setting": "A549 [10]", "result": "Active"}, {"measurement": "viability at 5 µM", "setting": "A549 [11]", "result": 54.9, "unit": "%"}, {"measurement": "Activity", "setting": "A549 [12]", "result": 21.6, "unit": "%"}, {"measurement": "Activity", "setting": "A549 [13]", "result": 70.4, "unit": "%"}, {"measurement": "Activity", "setting": "A549 [14]", "result": 2.49, "unit": "%"}, {"measurement": "Activity", "setting": "A549 [15]", "result": 0, "unit": "%"}, {"measurement": "Activity", "setting": "A549 [16]", "result": "Dose-Dependent Effect"}, {"measurement": "Activity", "setting": "A549 [17]", "result": 2.37, "unit": "%"}, {"measurement": "Activity", "setting": "A549 [18]", "result": 0.75, "unit": "%"}, {"measurement": "Activity", "setting": "A549 [19]", "result": 30, "unit": "%"}, {"measurement": "Activity", "setting": "[20]", "result": "> 90", "unit": "%"}, {"measurement": "Activity", "setting": "[21]", "result": "inactive"}, {"measurement": "Activity", "setting": "[22]", "result": "inactive"}, {"measurement": "Emax", "setting": "[23]", "result": "> 95", "unit": "%"}, {"measurement": "Activity", "setting": "[24]", "result": "inactive"}, {"measurement": "Activity", "setting": "[25]", "result": "inactive"}, {"measurement": "Activity", "setting": "[26]", "result": "inactive"}, {"measurement": "Activity", "setting": "[27]", "result": "Active"}, {"measurement": "inhibition", "setting": "A549 [28]", "result": "Active"}, {"measurement": "Activity", "setting": "A549 [29]", "result": "Active"}, {"measurement": "Activity", "setting": "[30]", "result": "Active"}, {"measurement": "Activity", "setting": "A549 [31]", "result": "Active"}, {"measurement": "Activity", "setting": "A549 [32]", "result": "Active"}]}]}
